In the experiment the target is T1, human recombinant collagenase (Homo sapiens, UniProt P03956).
T1 construct: made in house; host or cells: E. coli
T1 sequence (P03956 100-469): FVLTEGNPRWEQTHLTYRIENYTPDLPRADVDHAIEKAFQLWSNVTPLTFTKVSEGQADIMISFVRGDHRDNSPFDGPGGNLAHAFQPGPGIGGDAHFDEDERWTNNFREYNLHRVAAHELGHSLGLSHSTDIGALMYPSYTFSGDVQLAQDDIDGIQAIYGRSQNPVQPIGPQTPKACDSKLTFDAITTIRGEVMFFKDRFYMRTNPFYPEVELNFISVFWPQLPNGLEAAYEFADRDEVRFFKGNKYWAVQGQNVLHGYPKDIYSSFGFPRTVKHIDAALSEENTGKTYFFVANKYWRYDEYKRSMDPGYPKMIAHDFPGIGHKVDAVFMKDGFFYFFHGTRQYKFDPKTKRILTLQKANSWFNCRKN
Description: Collagenase inhibition assay. The conditions noted are these: 37° C., 18 h, acetylated 3H type 1 bovine collagen. Format: biochemical. How it is done: Procedure 2: The Ability of Test Compounds to Inhibit Collagenase was Investigated Using the Following Procedure.
Collagenase Inhibition Assay:
The potency of compounds to act as inhibitors of collagenase was determined by the method of Cawston and Barrett (Anal. Biochem. 99, 340-345, 1979), hereby incorporated by reference, whereby a 1 mM solution of the inhibitor being tested or dilutions thereof, was incubated at 37° C. for 18 h with collagen and human recombinant collagenase, from synovial fibroblasts cloned, expressed and purified from E. Coli, (buffered with 150 mM Tris, pH 7.6, containing 15 mM calcium chloride, 0.05% Brij 35, 200 mM sodium chloride and 0.02% sodium azide). The collagen was acetylated ^3H type 1 bovine collagen prepared by the method of Cawston and Murphy (methods in Enzymology 80, 711,1981) The samples were centrifuged to sediment undigested collagen and an aliquot of the radioactive supernatant removed for assay on a scintillation counter as a measure of hydrolysis. The collagenase activity in the presence of 1 mM inhibitor, or dilution thereof, was compared to activity in a control devoid of inhibitor and the results reported as that concentration effecting 50% of the collagenase (IC50).

IC50 data for one compound are collected here from US20030195191A1, “N-sulfonyl hydroxamic acid derivatives as inhibitors of cd23” (priority 2000, published 2003).

Regarding `O=C(NO)[C@H]1CCCCN1S(=O)(=O)Cc1ccc2ccccc2c1` [Example 2, (R)-1-(Naphthalen-2-ylmethanesulfonyl)piperidine-2-carboxylic Acid N-hydroxyamide], the half-maximal inhibitory concentration (IC50) was more than 10 µM.

For orientation: IC50 means the concentration that gives 50% inhibition.
